The results in this text go back to patent US20050032757A1, “Nutritional supplements” (priority 2003, published 2005).

This series in a line: Evaluation of composition stability of PSE and fish oil mixtures with test reagents. It counts as physicochemical. Conditions: fish oil 2 g. The procedure: Varying amounts of PSE and fish oil were mixed in a 50 ml beaker. The mixture was warmed to 35-40° C. A variety of test reagents, including surfactants and small carboxylic acid esters, were then examined for their ability to stabilize the mixture at room temperature (RT), 40° C., and 50° C.

Setting [1] is: Phytosterol 4 g, test reagent 0.20 g.
Setting [2] is: Phytosterol 4 g, test reagent 0.10 g.
Setting [3] is: Phytosterol 2 g, test reagent 0.10 g.
Where [4] appears, read: Phytosterol 4 g, test reagent 0.30 g.
[5] abbreviates: Phytosterol 4 g, test reagent 0.40 g.

Counter-ions that a name gives are not always drawn.

Consider Sodium Caproyl Lactylate, for which the Stability results under setting [1] was “unstable (unstable (separated quickly, usually less than 1-2 hr))”.
Take `OCC(O)CO` [Glycerin]: the Stability results under setting [2] was “insoluble”.
For the molecule Polysorbate 80, the Stability results by setting is: under setting [3], “unstable (unstable (separated quickly, usually less than 1-2 hr))”; under setting [1], “unstable (unstable (separated quickly, usually less than 1-2 hr))”.
In the case of Polysorbate 60, the Stability results under setting [3] is reported as “unstable (unstable (separated quickly, usually less than 1-2 hr))”; the Stability results under setting [1] is “unstable (unstable (separated quickly, usually less than 1-2 hr))”; the Stability results under setting [4] is given as “unstable (unstable (separated quickly, usually less than 1-2 hr))”; the Stability results under setting [5] was “unstable (unstable (separated quickly, usually less than 1-2 hr))”.
Consider Sorbitan Oleate, for which the Stability results by setting is: under setting [2], “unstable (unstable (separated quickly, usually less than 1-2 hr))”; under setting [1], “unstable (unstable (separated quickly, usually less than 1-2 hr))”; under setting [4], “unstable (unstable (separated quickly, usually less than 1-2 hr))”; under setting [5], “unstable (unstable (separated quickly, usually less than 1-2 hr))”.
On to `O=C(O)CC(O)(CC(=O)O)C(=O)O` [Citric Acid], for which the Stability results under setting [2] is listed as “insoluble”, the Stability results under setting [1] was “insoluble” and the Stability results under setting [4] is recorded as “insoluble”.
For Polysorbate 20, the Stability results under setting [2] is recorded as “unstable (unstable (separated quickly, usually less than 1-2 hr))” and the Stability results under setting [1] was “unstable (unstable (separated quickly, usually less than 1-2 hr))”.
For `CCOC(=O)CC(O)(CC(=O)OCC)C(=O)OCC` [Triethyl Citrate], the Stability results (Phytosterol 2 g, test reagent 0.30 g) is reported as “unstable (unstable (separated quickly, usually less than 1-2 hr))”; the Stability results under setting [2] was “stable (stable (did not separate for 24 hours))”; the Stability results under setting [1] is listed as “stable (stable (did not separate for 24 hours))”; the Stability results under setting [4] was “stable (stable (did not separate for 24 hours))”; the Stability results under setting [5] is “stable (stable (did not separate for 24 hours))”.
For the molecule `CCOC(=O)[C@H](O)[C@@H](O)C(=O)OCC` [Diethyl L-tartrate], the Stability results under setting [2] is given as “stable (stable (did not separate for 24 hours))”, the Stability results under setting [1] is recorded as “stable (stable (did not separate for 24 hours))” and the Stability results under setting [4] was “stable (stable (did not separate for 24 hours))”.
Turning to Sodium Isostearyl Lactylate, the Stability results under setting [2] is given as “unstable (unstable (separated quickly, usually less than 1-2 hr))”.
Turning to `CCOC(=O)/C=C\C(=O)OCC` [Diethyl Maleate], the Stability results by setting is: under setting [2], “stable (stable (did not separate for 24 hours))”; under setting [1], “stable (stable (did not separate for 24 hours))”; under setting [4], “insoluble”.
